What was measured:
[1] = cited from earlier work
[2] = cited from earlier work; remark: listed apart in the source
[3] = Alcohol-challenge test for relapse in a patient treated with baclofen for alcohol dependence; type: in vivo, human
Method: For alcoholism, vulnerability is tested with an alcohol-challenge test of about three to five standard drinks. The number of drinks can and should be varied (typically lower) if any adverse signs or cravings appear in the patient. […] If craving occurs, the patient is not protected against relapse and the SSD dosage needs to be increased and the test performed again until craving stops occurring altogether upon renewed alcohol-challenge (s). Once that state is achieved, the patient is protected against relapse.
The susceptibility of a patient to relapse while being treated for alcohol dependence using baclofen was determined. The patient (themself a physician) had been symptom-free for more than one year and was on a baclofen dose of 120 mg/day (40 mg, three times per day).
First challenge: During a social gathering, the patient had 3 standard drinks of alcohol (gin and tonic) over a few hours and evaluated the effects in the presence of a physician witness. The first drink was consumed slowly by sipping over some 40 minutes, without the slightest urge to drink it rapidly (and which had previously been the only way the patient would drink, e.g., typically consuming the drink within 5 minutes). A second drink was ordered, consumed and started to produce a pleasant mild euphoria. A third drink was begun but the patient was not able to finish it, something that would have been impossible during untreated alcohol dependence. At the time, the patient felt no desire to finish the third drink, felt a bit high and maintained the ability to chat. After a night's sleep, the patient woke up without any feelings of remorse or fear. […] The following hours were unremarkable. No alcohol thoughts or dreams occurred in the following weeks.
Second challenge: The patient repeated the experiment approximately one month later with an even stronger challenge: five drinks. Again in the presence of another physician, the patient succeeded in having 5 drinks of vodka and tonic over 6 hours. […] Accordingly the daily dosage of baclofen was increased from 40 mg three times daily, to 60 mg three times daily (180 mg/day). […] Accordingly, symptom suppression is dose-dependent and may require higher dosage when challenge is important.
Third challenge: To test if a higher than routine dose of baclofen can prevent cravings, even in the presence of a massive amount of alcohol such as is ingested during heavy drinking or during active relapse, the patient's baclofen dose was […] 24 hours prior to consuming an alcoholic beverage. The patient took 30 mg baclofen in the morning, a second such dose 8 hours later and a few hours later (in the evening) took dose of 80 mg baclofen at the same time as beginning to drink large amounts of alcohol as could reasonably tolerated, expecting that to be about a fifth of Scotch. The alcohol was consumed over several hours and the next day, actual consumption was measured to be four fifths of the bottle. […] The patient is able to have an occasional drink in a non-dependent fashion.

Compound: NCC(CC(=O)O)c1ccc(Cl)cc1 (centres unmarked) [baclofen]
- dosage sufficient for craving not to reappear ([1]; after progressive reduction from SSD, over the complete nine months of the published study): 120 mg/day
- coexistent (comorbid preexisting) anxiety ([1]; at SSD): greatly attenuated
- side effect ([1]; at SSD, reduced by lowering the dosage to 120 mg/day): somnolence
- dose needed for craving to completely and permanently disappear (symptom-suppressing dose, SSD) ([1]; oral, gradual dose-escalation, one patient): 270 mg/day
- complete and prolonged suppression of symptoms and consequences of AD ([2]; seven individual patients (Geneva) and one hundred patients (Vienna)): successfully reproduced
- relapse ([2]; some patients treated in Switzerland, even at high-dose baclofen): did relapse
- craving after third challenge ([3]; 30 mg + 30 mg + 80 mg on the day, four fifths of a bottle of Scotch over several hours, next day): no craving and no desire whatsoever to drink liquor
- craving and symptoms before challenge ([3]; 120 mg/day (40 mg three times per day), symptom-free for more than one year): completely suppressed craving and symptoms
- craving during follow-up after third challenge ([3]; 180 mg/day for six days, then maintenance dose of 120 mg/day): has not experienced any craving for more than one year
- craving after first challenge ([3]; 3 standard drinks (gin and tonic) over a few hours, 120 mg/day, after a night's sleep): no desire or thought to drink whatsoever
- craving after second challenge ([3]; 5 drinks of vodka and tonic over 6 hours, 120 mg/day, next day in the afternoon): a bout of craving was experienced
- craving on the increased regimen ([3]; second challenge, 60 mg three times daily (180 mg/day)): craving was again completely suppressed
- effect of an additional dose on the bout of craving ([3]; second challenge, administration of 40 mg, craving reappeared several hours later): suppressed the craving within the hour
- craving after dose reduction ([3]; second challenge, after six days at 180 mg/day progressively reduced to 120 mg/day): cravings did not reoccur

Source: patent US20080182904A1, “Baclofen for Relapse Protection in Addiction” (priority 2007, published 2008)
